From US8309735B2, “Heterocyclic compounds for the inhibition of integrins and use thereof” (Shire Orphan Therapies GmbH, priority 2006, dated 2012) come the findings set out here.

Molecules are shown by their SMILES.

Assay [1] deals with T1, integrin alpha5beta1 extracellular domain Fc-fusion (Homo sapiens, UniProt P05556+P08648).
T1 construct: The integrin alpha5beta1 extracellular domain Fc-fusion was expressed and purified as described; made in house
The experiment in a line: alpha5beta1 - Fibronectin Binding Assay (competitive ELISA). The conditions noted are these: inhibition of integrin binding to fibronectin. The method, then:
(§1) The optimal concentrations of integrin and ligand were selected from ELISA binding studies with variable concentrations of both to obtain optimal signal noise ratio for further studies. IC50 studies were performed with fixed concentration of ligand and integrin and a serial dilution of inhibitor. The plates were measured with SpectraMax Plus reader (Molecular Devices). The resulting inhibition curves were analyzed using SoftMaxPro 4.0 software, the turning point describes the IC50 value.
(§2) Fibronectin was purchased from Sigma and fibrinogen from Calbiochem. (EMD Biosciences, Darmstadt, Germany). The integrin alpha5beta1 extracellular domain Fc-fusion was expressed and purified as described (Coe, 2001, J. Biol. Chem., 276, 35854). Integrin alphaIIbbeta3 was purchased form Kordia (Kordia Life Science, Leiden, Netherlands)
1.1. alpha5beta1—Fibronectin Binding Assay
Fibronectin was diluted with coating buffer (15 mM Na2CO3, 35 mM NaHCO3, pH 9.6) and coated with 100 μL/well to Nunc-Immuno maxisorp plates (Nalge Nunc Europe Ltd) over night at 4° C. After discarding the coating solution plates were washed 3 times with buffer 1 (25 mM Tris, pH 7.6, 150 mM NaCl, 1 mM MnCl2, 1 mg/ml BSA) and blocked with 100 μL blocking buffer (3% BSA in PBS 0.1% Tween20) for 1 hour at room temperature. After washing the blocked plates (3 times) with buffer 1, integrin (50 μL) and either inhibitor (serial dilution in buffer 1) or buffer 1 (50 μL) were added to the wells and incubated for one hour at RT. Plates were then washed (3 times) with buffer 1 and incubated with 100 μL of anti-human-Fc-HRP antibody conjugate (Sigma-Aldrich, Taufkirchen, Germany) in buffer 1 for 1 hour at RT. After additional washing steps (3 times) with buffer 150 μL of HRP substrate solution TMB (Seramun, Germany) were added to the wells. Color development was stopped after 3-5 minutes with 50 μL 1 M H2SO4. The developed color was measured at 450 nm and analyzed as described above.

A further assay addresses T2, Integrin alphaIIbbeta3 (Homo sapiens, UniProt P05106+P08514).
T2 construct: purchased Kordia (Kordia Life Science, Leiden, Netherlands)
T2 sequence (P08514 32-887 limits assumed): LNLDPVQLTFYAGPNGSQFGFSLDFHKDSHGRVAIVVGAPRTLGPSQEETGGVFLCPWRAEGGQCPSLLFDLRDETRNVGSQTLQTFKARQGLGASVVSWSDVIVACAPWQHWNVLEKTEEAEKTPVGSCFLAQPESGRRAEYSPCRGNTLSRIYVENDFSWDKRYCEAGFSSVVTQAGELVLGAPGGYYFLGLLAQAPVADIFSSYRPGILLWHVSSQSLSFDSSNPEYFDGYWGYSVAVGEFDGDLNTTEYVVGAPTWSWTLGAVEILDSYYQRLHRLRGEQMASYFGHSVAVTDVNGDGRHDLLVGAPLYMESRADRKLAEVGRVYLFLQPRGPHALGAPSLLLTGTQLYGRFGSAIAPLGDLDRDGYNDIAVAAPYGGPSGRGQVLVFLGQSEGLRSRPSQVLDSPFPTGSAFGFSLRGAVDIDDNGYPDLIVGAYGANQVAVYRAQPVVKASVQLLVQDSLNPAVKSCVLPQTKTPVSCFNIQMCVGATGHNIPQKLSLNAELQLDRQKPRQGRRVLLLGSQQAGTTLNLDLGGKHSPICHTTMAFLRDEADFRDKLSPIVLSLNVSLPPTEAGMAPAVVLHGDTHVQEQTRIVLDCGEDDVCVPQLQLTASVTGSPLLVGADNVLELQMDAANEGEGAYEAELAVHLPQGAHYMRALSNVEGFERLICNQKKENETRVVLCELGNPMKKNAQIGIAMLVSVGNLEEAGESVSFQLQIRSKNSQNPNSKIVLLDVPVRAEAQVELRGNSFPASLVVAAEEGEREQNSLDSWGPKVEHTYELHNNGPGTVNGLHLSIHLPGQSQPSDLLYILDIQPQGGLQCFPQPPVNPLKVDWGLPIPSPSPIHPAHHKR
T2 sequence (P05106 27-788): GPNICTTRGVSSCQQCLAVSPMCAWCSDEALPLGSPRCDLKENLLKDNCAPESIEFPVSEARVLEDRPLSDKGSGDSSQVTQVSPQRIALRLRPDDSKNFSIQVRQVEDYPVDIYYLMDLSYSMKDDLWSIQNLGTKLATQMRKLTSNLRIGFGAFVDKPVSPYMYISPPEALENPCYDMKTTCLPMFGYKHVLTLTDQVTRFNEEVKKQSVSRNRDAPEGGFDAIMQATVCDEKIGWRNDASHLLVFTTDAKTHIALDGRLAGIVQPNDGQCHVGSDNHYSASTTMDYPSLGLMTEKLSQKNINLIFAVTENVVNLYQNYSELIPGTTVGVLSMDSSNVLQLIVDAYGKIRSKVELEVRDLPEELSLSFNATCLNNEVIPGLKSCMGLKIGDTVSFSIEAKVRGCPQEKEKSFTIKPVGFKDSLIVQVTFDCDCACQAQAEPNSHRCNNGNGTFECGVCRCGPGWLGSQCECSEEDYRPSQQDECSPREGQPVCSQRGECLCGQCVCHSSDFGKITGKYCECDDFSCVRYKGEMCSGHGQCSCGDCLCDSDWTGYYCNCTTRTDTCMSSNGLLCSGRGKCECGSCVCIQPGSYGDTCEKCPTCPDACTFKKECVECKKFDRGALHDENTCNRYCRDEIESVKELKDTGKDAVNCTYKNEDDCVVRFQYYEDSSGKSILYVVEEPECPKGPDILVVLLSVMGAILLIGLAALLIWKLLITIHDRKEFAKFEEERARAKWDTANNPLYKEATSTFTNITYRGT
Briefly: alphaIIbbeta3 - Fibrinogen Binding Assay (competitive ELISA). The conditions noted are these: inhibition of integrin binding to fibrinogen, read-out: IC50 alphabIIbbeta3. The method, then:
as §1, §2
1.2. alphaIIbbeta3—Fibrinogen Binding Assay
Fibrinogen was diluted with coating buffer (15 mM Na2CO3, 35 mM NaHCO3, pH 9.6) and coated with 100 μL/well to Nunc-Immuno maxisorp plates over night at 4° C. After discarding the coating solution plates were washed 3 times with buffer 1 (25 mM Tris, pH 7.6, 150 mM NaCl, 1 mM MnCl2, 1 mg/ml BSA) and blocked with 100 μL blocking buffer (3% BSA in PBS 0.1% Tween20) for 1 hour at room temperature. After washing the blocked plates (3 times) with buffer 1, integrin alphaIIbbeta3 (50 μL) and either inhibitor (serial dilution in buffer 3, 25 mM Tris, pH 7.6, 150 mM NaCl, 1 mM MnCl2, 1 mg/ml BSA 1 mM MgCl2, 1 mM CaCl2,) or buffer 3 (50 μL) were added to the wells and incubated for one hour at RT. Plates were then washed (3 times) with buffer 3 and incubated with 100 μL of anti-alphaIIbbeta3 antibody (anti CD41b, Pharmingen) in buffer 3 for 1 hour at RT. Plates were washed (3 times) with buffer 3 and incubated for 1 hour with 100 μL secondary antibody (anti-mouse-HRP conjugate, Sigma) in buffer 3. After additional washing steps (3 times) with buffer 3 50 μL of HRP substrate solution TMB (Seramun) were added to the wells. Color development was stopped after 3-5 minutes with 50 μL 1 M H2SO4. The developed color was measured at 450 nm and analyzed as described above.

As to `Cc1ccnc(NCc2cc(-c3ccc(C[C@H](NC(=O)c4c(C)cc(C)cc4C)C(=O)O)cc3)on2)c1` [Compound 6, 3-(4-{3-[(4-Methyl-pyridin-2-ylamino)-methyl]-isoxazol-5-yl}-phenyl)-2-(2,4,6-trimethyl-benzoylamino)-propionic acid], the IC50 in assay [1] is less than 0.1 µM; on Integrin alphaIIbbeta3, more than 0.001 µM.
Taken in the same sequence, the figures for `Cc1ccnc(NCc2cnc(-c3ccc(C[C@H](NC(=O)c4c(C)cc(C)cc4C)C(=O)O)cc3)s2)c1` [Compound 9, 3-(4-{5-[(4-Methyl-pyridin-2-ylamino)-methyl]-thiazol-2-yl}-phenyl)-2-(2,4,6-trimethyl-benzoylamino)-propionic acid] were less than 0.1 µM and more than 0.001 µM.
For `Cc1ccnc(NCc2coc(-c3ccc(C[C@H](NC(=O)c4c(C)cc(C)cc4C)C(=O)O)cc3)c2)c1` [Compound 12, 3-(4-{4-[(4-Methyl-pyridin-2-ylamino)-methyl]-furan-2-yl}-phenyl)-2-(2,4,6-trimethyl-benzoylamino)-propionic acid], the IC50 was less than 0.1 µM in assay [1] and more than 0.001 µM at Integrin alphaIIbbeta3.
Turning to `Cc1ccnc(NCc2cn(-c3ccc(C[C@H](NC(=O)c4c(C)cc(C)cc4C)C(=O)O)cc3)nn2)c1` [Compound 15, 3-(4-{4-[(4-Methyl-pyridin-2-ylamino)-methyl]-[1,2,3]triazol-1-yl}-phenyl)-2-(2,4,6-trimethyl-benzoylamino)-propionic acid], the IC50 in assay [1] was less than 0.1 µM; on Integrin alphaIIbbeta3, more than 0.001 µM.
Turning to `Cc1ccnc(NCc2csc(-c3ccc(C[C@H](NC(=O)c4c(C)cc(C)cc4C)C(=O)O)cc3)c2)c1` [Compound 19, 3-(4-{4-[(4-Methyl-pyridin-2-ylamino)-methyl]-thiophen-2-yl}-phenyl)-2-(2,4,6-trimethyl-benzoylamino)-propionic acid], the IC50 in assay [1] was less than 0.1 µM; at Integrin alphaIIbbeta3, more than 0.001 µM.
Taken in the same sequence, the figures for `Cc1ccnc(NCc2ccn(-c3ccc(C[C@H](NC(=O)C4(C)CCCCC4)C(=O)O)cc3)c2)c1` [Compound 22, 2-[(1-Methyl-cyclohexanecarbonyl)-amino]-3-(4-{3-[(4-methyl-pyridin-2-ylamino)-methyl]-pyrrol-1-yl}-phenyl)-propionic acid] were less than 0.1 µM and more than 0.001 µM.
As for `Cc1cc(C)c(C(=O)N[C@@H](Cc2ccc(-n3cc(CNc4nc5ccccc5[nH]4)nn3)cc2)C(=O)O)c(C)c1` [Compound 29, 3-(4-{4-[(1H-Benzoimidazol-2-ylamino)-methyl]-[1,2,3]triazol-1-yl}-phenyl)-2-(2,4,6-trimethyl-benzoylamino)-propionic], the values for the IC50 (in assay [1]; at Integrin alphaIIbbeta3) were less than 0.1 µM and more than 0.001 µM, respectively.
`Cc1ccnc(NCc2coc(-c3ccc(C[C@H](NC(=O)c4c(C)cccc4C)C(=O)O)cc3)c2)c1` [Compound 35, 2-(2,6-Dimethyl-benzoylamino)-3-(4-{4-[(4-methyl-pyridin-2-ylamino)-methyl]-furan-2-yl}-phenyl)-propionic acid]: the IC50 in assay [1] was less than 0.1 µM; at Integrin alphaIIbbeta3, more than 0.001 µM.
Regarding `CCc1cccc(C)c1C(=O)N[C@@H](Cc1ccc(-c2cc(CNc3cc(C)ccn3)co2)cc1)C(=O)O` [Compound 36, 2-(2-Ethyl-6-methyl-benzoylamino)-3-(4-{4-[(4-methyl-pyridin-2-ylamino)-methyl]-furan-2-yl}-phenyl)-propionic acid], the 50% inhibitory concentration (IC50) is less than 0.1 µM in assay [1] and more than 0.001 µM on Integrin alphaIIbbeta3.
Taken in the same sequence, the figures for `Cc1ccnc(NCc2coc(-c3ccc(C[C@H](NC(=O)c4c(C)cc(F)cc4C)C(=O)O)cc3)c2)c1` [Compound 37, 2-(4-Fluoro-2,6-dimethyl-benzoylamino)-3-(4-{4-[(4-methyl-pyridin-2-ylamino)-methyl]-furan-2-yl}-phenyl)-propionic acid] were less than 0.1 µM and more than 0.001 µM.
